Measured values reported in US7592366B2, “Therapeutic compounds” (Allergan, Inc., priority 2006, dated 2009).

Tests used:
[1] = target: T1, EP4 receptors (Homo sapiens, UniProt P35408); assay: Radioligand binding [3H]PGE2, EP4 Ki; settings: [3H]PGE2 competition, HEK-293 cells expressing EP4
T1 construct: expressed in transfected cells; host or cells: HEK-293
Experimental: HEK-293 cells stably expressing the human or feline FP receptor, or EP1, EP2, or EP4 receptors were washed with TME buffer, scraped from the bottom of the flasks, and homogenized for 30 sec using a Brinkman PT 10/35 polytron. TME buffer was added to achieve a final 40 ml volume in the centrifuge tubes (the composition of TME is 100 mM TRIS base, 20 mM MgCl2, […]; 10N HCl is added to achieve a pH of 7.4).
The cell homogenate was centrifuged at 19000 r.p.m. for 20 min at 4° C. using a Beckman Ti-60 rotor. The resultant pellet was resuspended in TME buffer to give a final 1 mg/ml protein concentration, as determined by Biorad assay. Radioligand binding competition assays vs. [^3H-]17-phenyl PGF2α (5 nM) were performed in a 100 μl volume for 60 min. Binding reactions were started by adding plasma membrane fraction. The reaction was terminated by the addition of 4 ml ice-cold TRIS-HCl buffer and rapid filtration through glass fiber GF/B filters using a Brandel cell harvester. The filters were washed 3 times with ice-cold buffer and oven dried for one hour.
[^3H-] PGE2 (specific activity 180 Ci mmol) was used as the radioligand for EP receptors. [^3H] 17-phenyl PGF2α was employed for FP receptor binding studies. Binding studies employing EP1, EP2, EP4 and FP receptors were performed in duplicate in at least three separate experiments. A 200 μl assay volume was used. Incubations were for 60 min at 25° C. and were terminated by the addition of 4 ml of ice-cold 50 mM TRIS-HCl, followed by rapid filtration through Whatman GF/B filters and three additional 4 ml washes in a cell harvester (Brandel). Competition studies were performed using a final concentration of 5 nM [^3H]-PGE2, or 5 nM [^3H] 17-phenyl PGF2α and non-specific binding determined with 10^−5M of unlabeled PGE2, or 17-phenyl PGF2α, according to receptor subtype studied.

[2] = target: T2, hEP3A/Gqi5 (Homo sapiens, UniProt P43115); assay: FLIPR calcium signal, hEP3A; type: cell-based; settings: read-out: Other Receptors (EC50 in nM) hEP3A
T2 construct: expressed in transfected cells; host or cells: HEK-293(EBNA)
T2 sequence (P43115 1-390): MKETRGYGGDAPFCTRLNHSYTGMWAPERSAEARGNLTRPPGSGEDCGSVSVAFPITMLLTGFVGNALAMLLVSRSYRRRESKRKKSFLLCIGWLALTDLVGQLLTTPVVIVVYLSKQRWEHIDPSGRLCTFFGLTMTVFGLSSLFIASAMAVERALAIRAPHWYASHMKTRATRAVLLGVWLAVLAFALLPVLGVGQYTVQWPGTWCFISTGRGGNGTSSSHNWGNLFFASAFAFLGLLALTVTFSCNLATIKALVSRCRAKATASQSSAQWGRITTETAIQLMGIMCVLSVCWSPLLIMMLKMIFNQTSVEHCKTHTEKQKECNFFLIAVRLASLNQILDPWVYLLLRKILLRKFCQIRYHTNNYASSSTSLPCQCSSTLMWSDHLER
Experimental: HEK-293(EBNA) cells, stably expressing one type or subtype of recombinant human prostaglandin receptors (prostaglandin receptors expressed: hDP/Gqs5; hEP1; hEP2/Gqs5; hEP3A/Gqi5; hEP4/Gqs5; hFP; hIP; hTP), were cultured in 100 mm culture dishes in high-glucose DMEM medium containing 10% fetal bovine serum, 2 mM l-glutamine, 250 μg/ml geneticin (G418) and 200 μg/ml hygromycin B as selection markers, and 100 units/ml penicillin G, 100 μg/ml streptomycin and 0.25 μg/ml amphotericin B.
Cells were seeded at a density of 5×10^4 cells per well in Biocoat® Poly-D-lysine-coated black-wall, clear-bottom 96-well plates (Becton-Dickinson) and allowed to attach overnight in an incubator at 37° C. Cells were then washed two times with HBSS-HEPES buffer (Hanks Balanced Salt Solution without bicarbonate and phenol red, 20 mM HEPES, pH 7.4) using a Denley Cellwash plate washer (Labsystems). […]
Cells were excited with an Argon laser at 488 nm, and emission was measured through a 510-570 nm bandwidth emission filter (FLIPR™, Molecular Devices, Sunnyvale, Calif.). […] The peak increase in fluorescence intensity was recorded for each well. […] The peak fluorescence change in each drug-containing well was then expressed relative to the controls. […]

[3] = target: EP2 (Homo sapiens, UniProt P43116); assay: cAMP assay, EP2; type: cell-based; design: expressed in transfected cells; host or cells: HEK-EBNA; settings: HEK-EBNA cells expressing EP2
Experimental: A 384-well drug plate was prepared to contain 6 test compounds, PGE2 and cAMP in 16 serial dilutions in triplicate, using a Biomek station. HEK-EBNA cells expressing a target PG receptor subtype (EP2 or EP4) were suspended in a stimulation buffer (HBSS, 0.1% BSA, 0.5 mM IBMX and 5 mM HEPES, pH 7.4) in a density of 10^4 cells/5 μl. The reaction was initiated by mixing 5 μL drug dilutions with 5 μl of HEK-EBNA cells in a well, carried out for 30 min at room temperature, and followed by the addition of 5 μl anti-cAMP acceptor beads in the control buffer with Tween-20 (25 mM NaCl, 0.03% Tween-20, 5 mM HEPES, pH7.4). After 30 min in the dark at room temperature, the mixtures were incubated with 15 μl biotinylated-cAMP/strepavidin donor beads in Lysis/Detection buffer (0.1% BSA, 0.3% Tween-20 and 5 mM HEPES, pH7.4) for 45 min at the room temperature. Fluorescence changes were read using a Fusion-alpha HT microplate reader.

T1 sequence (P35408 whole entry): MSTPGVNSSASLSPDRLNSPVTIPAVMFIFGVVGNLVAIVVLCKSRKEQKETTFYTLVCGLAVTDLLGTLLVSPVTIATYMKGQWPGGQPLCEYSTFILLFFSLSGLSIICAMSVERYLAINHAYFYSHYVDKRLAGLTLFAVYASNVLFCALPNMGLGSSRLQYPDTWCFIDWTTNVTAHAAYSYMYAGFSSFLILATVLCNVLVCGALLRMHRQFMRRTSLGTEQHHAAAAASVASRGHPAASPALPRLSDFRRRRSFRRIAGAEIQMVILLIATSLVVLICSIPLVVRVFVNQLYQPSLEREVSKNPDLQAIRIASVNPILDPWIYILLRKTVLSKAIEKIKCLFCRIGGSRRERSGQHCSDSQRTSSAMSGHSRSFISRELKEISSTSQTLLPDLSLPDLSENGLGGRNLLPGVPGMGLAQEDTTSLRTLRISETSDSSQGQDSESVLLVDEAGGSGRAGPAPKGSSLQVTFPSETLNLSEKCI
Chain of EP2 (P43116 whole entry): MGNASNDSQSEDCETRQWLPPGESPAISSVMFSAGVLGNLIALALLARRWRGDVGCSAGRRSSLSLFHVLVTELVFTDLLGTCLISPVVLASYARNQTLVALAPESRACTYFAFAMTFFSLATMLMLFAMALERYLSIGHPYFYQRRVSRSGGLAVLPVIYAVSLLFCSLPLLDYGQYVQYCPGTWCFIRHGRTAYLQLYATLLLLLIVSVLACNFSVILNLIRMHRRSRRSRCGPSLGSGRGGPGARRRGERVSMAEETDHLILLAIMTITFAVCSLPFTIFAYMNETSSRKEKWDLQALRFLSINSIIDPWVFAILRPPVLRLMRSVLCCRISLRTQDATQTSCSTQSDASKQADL

| SMILES | Ki [1] | EC50 [2] | EC50 [3] |
| --- | --- | --- | --- |
| O=C(O)c1ccc(CCC[C@@H]2[C@@H](CCc3cc(Cl)cc(Cl)c3)[C@@H](O)C[C@H]2Cl)s1 [compound 17, 5-(3-((1R,2R,3S,5R)-5-chloro-2-(3,5-dichlorophenethyl)-3-hydroxycyclopenty)propyl)thiophene-2-carboxylic acid] | > 10 µM | > 10000 nM | 0.004 µM |
| O=C(O)c1ccc(CCC[C@@H]2[C@@H](CCc3cc(F)cc(F)c3)[C@H](O)C[C@H]2Cl)s1 [11d, 5-(3-((1R,2R,3R,5R)-5-chloro-2-(3,5-difluorophenethyl)-3-hydroxycyclopentyl)propyl)thiophene-2-carboxylic acid] | 2.57 µM | 8540 nM | 0.0001 µM |
